Experimental data: US10751324B2, “Treatment of TNF- alpha cytotoxicity” (The University of Chicago, priority 2016, dated 2020)

How the values were obtained:
BAD [1] = assay: Cytotoxic dose TNFα-induced BAD translocation to mitochondria, cell fractionation and immunoblotting in MEFs; conditions: MEFs pre-treated with different doses 1 hour, cytotoxic TNFα 4 hours; FIG. 19B
WT fibroblasts = assay: TNFα-induced apoptosis in fibroblasts pre-treated with actin stress fiber modulators, Annexin V/PI flow cytometry; assay type: cell-based, mouse; conditions: for cytotoxic dose TNFα-induced apoptosis: pre-treated 1 hour (30 nM Jasplakinolide or 5 μM S1P), then 80 ng/ml TNFα, FIG. 10B, 10D; for apoptosis with non-cytotoxic dose TNFα: pre-treated 1 hour (1 μg/ml Cytochalasin D or 2.5 μg/ml Latrunculin B), 5 ng/ml TNFα 12 hours, FIG. 10F, 10H
Procedure: Annexin V and propidium iodide (PI) staining was performed with FITC Annexin V apoptosis Detection kit (BD Pharmingen). Apoptotic cells were analyzed by FACS canto flow cytometer (BD Biosciences).
(§1) WT and Bad-deficient fibroblasts were pre-treated with 30 nM Jasplakinolide (FIG. 10A and FIG. 10B), 5 μM Sphingosine-1-phosphate (S1P) (FIG. 10C and FIG. 10D) or DMSO (control) for 1 hour, followed by stimulation with or without 80 ng/ml TNFα for various times, as indicated. Cell extracts were separated into cytosol and mitochondrial fractions. Subcellular localizations of BAD and IKK-phosphorylated BAD were determined. ß-actin, BCL-xL, and COX-2 were used as control (FIG. 10A and FIG. 10C). Apoptotic cells were identified by Annexin V and PI staining, followed by flow cytometric analysis. Data are as means±s.d. **, P<0.01, as analyzed by two-tailed Student's t test (FIG. 10B and FIG. 10D).
(§2) WT and Bad-deficient fibroblasts were pretreated with 1 μg/ml Cytochalasin D (FIG. 10E and FIG. 10F), 2.5 μg/ml Latrunculin B (FIG. 10G and FIG. 10H), or DMSO (control) for 1 hours, followed by stimulation with or without 5 ng/ml or 80 ng/ml TNFα for 4 hours (FIG. 10E and FIG. 10G) or 12 hours (FIG. 10F and FIG. 10H). Cell extracts were separated into cytosol and mitochondrial fractions. Subcellular localizations of BAD and IKK phosphorylated BAD were determined. ß-actin, BCL-xL, and COX-2 were used as control (FIG. 10E and FIG. 10G). Apoptotic cells were identified by Annexin V and PI staining, followed by flow cytometric analysis. Data are means±s.d. and represent three individual experiments. **, P<0.01, as analyzed by two-tailed Student's t test (FIG. 10B, FIG. 10D, FIG. 10F, and FIG. 10H).

BAD [2] = assay: TNFα-induced BAD mitochondrial translocation in fibroblasts pre-treated with actin stress fiber modulators; assay type: cell-based, mouse; conditions: for cytotoxic dose TNFα-induced BAD mitochondrial translocation: pre-treated 1 hour (30 nM Jasplakinolide or 5 μM S1P), then 80 ng/ml TNFα, FIG. 10A, 10C; for BAD mitochondrial translocation with non-cytotoxic dose TNFα: pre-treated 1 hour (1 μg/ml Cytochalasin D or 2.5 μg/ml Latrunculin B), 5 ng/ml TNFα 4 hours, FIG. 10E, 10G
Procedure: Immunoprecipitation was performed as previously described (12). Caspase 3 assay was performed with Casp-3 cellular activity assay kit using Casp-3 substrate Ac-DEVD-pNA (Calbiochem). Active RhoA, active Src, and active Cdc42 assays were performed with G-LISA assay biochemical kit (Cytoskeleton, Inc.). Active GEF-H1 assay was performed by using GST-RhoA(G17A) to pull down the active GEF-H1 from cell extracts and analyzed by immunoblotting. Cytosol and mitochondria fractionations were prepared by the cytosol/mitochondria fractionation kit (Biovision), according to the manufacturer protocol. Cytoskeleton precipitation and G-actin/F-actin assay were performed by the G-actin/F-actin in vivo assay biochem kit (Cytoskeleton, Inc.)
as §1, §2

[3] = test system: wild type mice subjected to CLP surgery; assay: Polymicrobial infection model (cecal ligation and puncture, CLP), mortality rate; assay type: in vivo, mouse; conditions: 2.5 mg/kg i.p. 6 hours before CLP and each 12 hours after surgery; n=10, p<0.01; FIG. 20B
Procedure: Wild type C57B6/J6 mice were maintained in a specific pathogen-free facility and housed on a 12:12-hour light/dark photoperiod at an ambient temperature of 22° C.±2° C. All animal experiments were conducted in accordance with the protocols approved by the Institutional Animal Care and Use Committee of the University of Chicago. 6-8 week old male mice were used for all of the experiments. The bacterial infusion model was performed by intraperitoneal (i.p.) injection of E. coli (ATCC 25922; 3×10^7 CFU). For the polymicrobial infection model, the CLP procedure was performed. The severity of CLP was adjusted to a high-grade sepsis. For the mock CLP procedure (Sham), mice underwent the same abdominal surgery as CLP procedure, except were not subject to the cecal ligation and puncture. Inhibitor treatments were performed using i.p. injection of the compound at a dose of 2.5 mg/kg body weight. Same amount of DMSO were i.p. injected as a control. […] Mortality rates were recorded for up to 120 hours for the CLP model and 50-60 hours for the E. coli model after the treatment and dying mice were pre-moved. […]
In these experiments, wild type mice were i.p injected with or without saracatinib (2.5 mg/kg body weight) for 6 hours, then challenged with E. coli (5×10^7CFU, i.p. injection). […] Mortality rate was determined (FIG. 20A); n=6, p<0.01. […] Mortality rate was determined (FIG. 20B); n=10, p<0.01.

IKKß = target: T1, IKKß (Mus musculus, UniProt O88351); assay: IKKß phosphorylation by immunoblotting in TNFα-treated MEFs ("in vitro kinase assay"); assay type: cell-based; conditions: MEFs pre-treated with different doses for 1 hour, then cytotoxic TNFα 15 min; immunoblot, FIG. 17
T1 construct: Total cell lysate was prepared for western blotting analysis; endogenous in cells; host or cells: mouse embryonic fibroblasts (MEFs)
T1 sequence (O88351 1-757): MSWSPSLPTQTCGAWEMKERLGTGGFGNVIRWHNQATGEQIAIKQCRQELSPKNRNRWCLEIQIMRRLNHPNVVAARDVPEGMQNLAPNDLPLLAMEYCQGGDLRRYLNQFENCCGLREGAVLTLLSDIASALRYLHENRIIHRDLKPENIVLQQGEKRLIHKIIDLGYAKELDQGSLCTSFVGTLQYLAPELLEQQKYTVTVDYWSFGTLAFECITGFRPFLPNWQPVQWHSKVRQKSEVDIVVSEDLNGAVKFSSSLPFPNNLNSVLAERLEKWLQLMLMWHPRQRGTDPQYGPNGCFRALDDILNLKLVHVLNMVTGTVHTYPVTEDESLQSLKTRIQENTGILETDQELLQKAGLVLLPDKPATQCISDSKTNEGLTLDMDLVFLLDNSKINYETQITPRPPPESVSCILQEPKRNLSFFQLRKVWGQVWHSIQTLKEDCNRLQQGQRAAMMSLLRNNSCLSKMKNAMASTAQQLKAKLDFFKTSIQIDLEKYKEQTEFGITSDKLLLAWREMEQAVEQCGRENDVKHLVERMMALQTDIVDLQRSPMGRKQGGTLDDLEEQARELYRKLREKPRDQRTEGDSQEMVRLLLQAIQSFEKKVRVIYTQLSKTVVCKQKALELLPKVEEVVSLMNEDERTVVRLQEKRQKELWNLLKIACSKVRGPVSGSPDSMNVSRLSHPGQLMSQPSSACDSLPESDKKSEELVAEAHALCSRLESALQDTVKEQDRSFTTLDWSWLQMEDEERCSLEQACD

`CN1CCN(CCOc2cc(OC3CCOCC3)c3c(Nc4c(Cl)ccc5c4OCO5)ncnc3c2)CC1` [saracatinib] was tested, and the “cytotoxic dose TNFα-induced BAD translocation to mitochondria” value (BAD [1]) was “inhibit”.

With `CCCCCCCCCCCCC/C=C/[C@@H](O)[C@@H](N)COP(=O)(O)O` [sphingosine-1-phosphate, Sphingosine-1-phosphate] the “cytotoxic dose TNFα-induced apoptosis” value (WT fibroblasts) was “significantly reduced” and the “cytotoxic dose TNFα-induced BAD mitochondrial translocation” value (BAD [2]) was “significantly reduced”.

With `[2H]C([2H])([2H])N1CCN(CCOc2cc(OC3CCOCC3)c3c(Nc4c(Cl)ccc5c4OCO5)ncnc3c2)CC1` [ZG5129] the “polymicrobial infection-induced severe sepsis (mortality rate)” value [3] was “inhibit”.

With `C/C1=C\[C@H](C)C[C@H](C)OC(=O)C[C@H](c2ccc(O)cc2)NC(=O)[C@@H](Cc2c(Br)[nH]c3ccccc23)N(C)C(=O)[C@H](C)NC(=O)[C@@H](C)C1` [Jasplakinolide] the “cytotoxic dose TNFα-induced apoptosis” value (WT fibroblasts) was “significantly reduced” and the “cytotoxic dose TNFα-induced BAD mitochondrial translocation” value (BAD [2]) was “significantly reduced”.

In the case of `C/C1=C/C(=O)O[C@@H]2C[C@@H](CC[C@H](C)/C=C\CC1)O[C@@](O)([C@@H]1CSC(=O)N1)C2` [latrunculin B, Latrunculin B], the “apoptosis with non-cytotoxic dose TNFα” value (WT fibroblasts) is reported as “induced” and the “BAD mitochondrial translocation with non-cytotoxic dose TNFα” value (BAD [2]) is reported as “induced”.

With `C=C1[C@@H](C)[C@H]2[C@H](Cc3ccccc3)NC(=O)[C@]23[C@H](OC(C)=O)/C=C/[C@@](C)(O)C(=O)[C@@H](C)C/C=C/[C@H]3[C@@H]1O` [cytochalasin D, Cytochalasin D] the “apoptosis with non-cytotoxic dose TNFα” value (WT fibroblasts) was “induced” and the “BAD mitochondrial translocation with non-cytotoxic dose TNFα” value (BAD [2]) was “induced”.

In the case of `Cc1nc(Nc2ncc(C(=O)Nc3c(C)cccc3Cl)s2)cc(N2CCN(CCO)CC2)n1.O` [dasatinib, N-(2-chloro-6-methylphenyl)-2-[[6-[4-(2-hydroxyethyl)-1-piperazinyl]-2-methyl-4-pyrimidinyl]amino]-5-thiazole carboxamide monohydrate], the IKK phosphorylation (IKKß) is reported as “do not inhibit” and the “cytotoxic dose TNFα-induced BAD translocation to mitochondria” value (BAD [1]) is reported as “inhibit”.
